In US20150239905A1, “IMIDAZOPYRIDINE COMPOUNDS” (Proximagen Limited, priority 2008, published 2015):
pIC50: −log10 of the molar value.

The molecules below were run against T1, purified recombinantly expressed human SSAO (Homo sapiens, UniProt Q16853) (assay: SSAO enzyme inhibition assay (benzylamine substrate; hydrogen peroxide/HRP-coupled or 14C-benzaldehyde detection)). Conditions: human recombinant SSAO, benzylamine as substrate, rt.
T1 construct: made in house
T1 sequence (Q16853 29-763 limits assumed): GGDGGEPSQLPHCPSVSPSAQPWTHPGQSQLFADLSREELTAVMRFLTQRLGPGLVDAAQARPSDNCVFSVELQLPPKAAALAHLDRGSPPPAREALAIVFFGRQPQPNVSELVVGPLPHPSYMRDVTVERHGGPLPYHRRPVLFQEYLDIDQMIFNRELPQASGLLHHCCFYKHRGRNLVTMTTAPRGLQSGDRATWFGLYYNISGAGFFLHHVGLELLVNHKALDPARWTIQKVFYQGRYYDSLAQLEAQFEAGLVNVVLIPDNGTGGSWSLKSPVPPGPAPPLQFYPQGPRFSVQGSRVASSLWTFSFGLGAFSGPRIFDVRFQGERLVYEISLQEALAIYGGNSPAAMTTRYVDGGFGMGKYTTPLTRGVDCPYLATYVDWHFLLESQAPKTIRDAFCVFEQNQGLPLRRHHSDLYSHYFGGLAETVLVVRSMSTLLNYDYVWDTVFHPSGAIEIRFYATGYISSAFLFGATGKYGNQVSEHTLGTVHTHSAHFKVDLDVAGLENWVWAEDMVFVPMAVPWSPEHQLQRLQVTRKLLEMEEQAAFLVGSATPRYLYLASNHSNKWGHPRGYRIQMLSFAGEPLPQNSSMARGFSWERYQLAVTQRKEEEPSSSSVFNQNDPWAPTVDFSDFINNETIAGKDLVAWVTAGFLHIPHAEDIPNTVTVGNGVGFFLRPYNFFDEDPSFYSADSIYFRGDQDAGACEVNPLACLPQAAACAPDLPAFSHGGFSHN
Assay type: biochemical
Method: All primary assays were performed in rt with purified recombinantly expressed human SSAO. Enzyme was prepared essentially as described in Öhman et al. (Protein Expression and Purification 46 (2006) 321-331). In addition, secondary- and selectivity assays were performed using SSAO prepared from various tissues or purified rat recombinant SSAO. The enzyme activity was assayed with benzylamine as substrate by measuring either benzaldehyde production, using ^14C-labeled substrate, or by utilizing the production of hydrogen peroxide in a horseradish peroxidise (HRP) coupled reaction. Briefly, test compounds were dissolved in dimethyl sulfoxide (DMSO) to a concentration of 10 mM. Dose-response measurements were assayed by either creating 1:10 serial dilutions in DMSO to produce a 7 point curve or by making 1:3 serial dilutions in DMSO to produce 11 point curves. The top concentrations were adjusted depending on the potency of the compounds and subsequent dilution in reaction buffer yielded a final DMSO concentration≦2%.
In a horseradish peroxidise (HRP) coupled reaction, hydrogen peroxide oxidation of 10-acetyl-3,7-dihydroxyphenoxazine produced resorufin, which is a highly fluorescent compound (Zhout and Panchuk-Voloshina. Analytical Biochemistry 253 (1997) 169-174; Amplex® Red Hydrogen Peroxide/peroxidise Assay kit, Invitrogen A22188). Enzyme and compounds in 50 mM sodium phosphate, pH 7.4 were set to pre-incubate in flat-bottomed microtiter plates for approximately 15 minutes before initiating the reaction by addition of a mixture of HRP, benzylamine and Amplex reagent. Benzylamine concentration was fixed at a concentration corresponding to the Michaelis constant, determined using standard procedures. Fluorescence intensity was then measured at several time points during 1-2 hours, exciting at 544 nm and reading the emission at 590 nm. For the human SSAO assay final concentrations of the reagents in the assay wells were: SSAO enzyme […], benzylamine 100 μM, Amplex reagent 20 μM, HRP 0.1 U/mL and varying concentrations of test compound. The inhibition was measured as % decrease of the signal compared to a control without inhibitor (only diluted DMSO). The background signal from a sample containing no SSAO enzyme was subtracted from all data points. Data was fitted to a four parameter logistic model and IC50 values were calculated using the GraphPad Prism 4 or XLfit 4 programs.
SSAO activity was assayed using 14C-labeled benzylamine and analysed by measuring radioactive benzaldehyde. […] Phase separation occurred instantly and activity was read in a Topcount scintillation counter (Perkin-Elmer). […] Data was analysed as above.

pIC50 | SMILES
6.81 | O=C(c1ccc2nc(-c3ccc(Cl)cc3)c(CO)n2c1)N1CCC(CO)CC1 [Example 62, (1-{[2-(4-Chlorophenyl)-3-(hydroxymethyl)imidazo[1,2-a]pyridin-6-yl]carbonyl}piperidin-4-yl)methanol]
6.61 | COc1cccc(-c2nc3cnc(Br)cn3c2CO)c1 [Example 81, [6-Bromo-2-(3-methoxyphenyl)imidazo[1,2-a]pyrazin-3-yl]methanol]
7.05 | CC(O)c1cn2c(CO)c(-c3ccc(Cl)cc3)nc2s1 (stereo not shown) [Example 106, 1-[6-(4-Chlorophenyl)-5-(hydroxymethyl)imidazo[2,1-b][1,3]thiazol-2-yl]ethanol]

SMILES | pIC50
OCc1c(-c2ccc(Br)cc2)nc2ccc(C(F)(F)F)cn12 [Example 23, [2-(4-Bromophenyl)-6-(trifluoromethyl)imidazo[1,2-a]pyridin-3-yl]methanol] | 7.06
